# Assay results published in patent US10894807B2 (Siemens Medical Solutions USA, Inc., priority 2011, dated 2021).
# Target: human PSMA (Homo sapiens (Human), UniProt Q04609)
# Assay: Enzymatic assay for in vitro evaluation of PSMA inhibitors (fluorescent assay of PSMA activity, NAAG substrate, OPA detection of glutamate)
# Format: biochemical
# Conditions: for PSMA Blkg % (10 μM): compound at 10 μM
# Description: Enzymatic Assay for In Vitro Evaluation of PSMA Inhibitors
# The inhibitory activity of all compounds was determined using a fluorescent assay of human PSMA activity. The enzyme used in the assay was purchased from R&D Systems and stored at −80° C. The PSMA activity was assayed in a two-step process. In the first step, aliquots of enzyme (0.2 μg/mL) were incubated for 1 h at 37° C. in 50 mM HEPES, 0.1 M NaCl, pH 7.5, in the presence of 20 μM NAAG and the given inhibitor, in a volume of 250 μL, to allow for the accumulation of glutamate produced in the PSMA reaction. In the second step, the amount of accumulated glutamate was measured using the OPA reaction, and the fluorescence was read with a SpectraMax fluorescent plate reader using excitation at 330 nm and emission at 450 nm. The final Ki values for each inhibitor were calculated from the respective IC50 values using the Cheng and Prusoff equation.
# human PSMA, sequence (Q04609 whole entry): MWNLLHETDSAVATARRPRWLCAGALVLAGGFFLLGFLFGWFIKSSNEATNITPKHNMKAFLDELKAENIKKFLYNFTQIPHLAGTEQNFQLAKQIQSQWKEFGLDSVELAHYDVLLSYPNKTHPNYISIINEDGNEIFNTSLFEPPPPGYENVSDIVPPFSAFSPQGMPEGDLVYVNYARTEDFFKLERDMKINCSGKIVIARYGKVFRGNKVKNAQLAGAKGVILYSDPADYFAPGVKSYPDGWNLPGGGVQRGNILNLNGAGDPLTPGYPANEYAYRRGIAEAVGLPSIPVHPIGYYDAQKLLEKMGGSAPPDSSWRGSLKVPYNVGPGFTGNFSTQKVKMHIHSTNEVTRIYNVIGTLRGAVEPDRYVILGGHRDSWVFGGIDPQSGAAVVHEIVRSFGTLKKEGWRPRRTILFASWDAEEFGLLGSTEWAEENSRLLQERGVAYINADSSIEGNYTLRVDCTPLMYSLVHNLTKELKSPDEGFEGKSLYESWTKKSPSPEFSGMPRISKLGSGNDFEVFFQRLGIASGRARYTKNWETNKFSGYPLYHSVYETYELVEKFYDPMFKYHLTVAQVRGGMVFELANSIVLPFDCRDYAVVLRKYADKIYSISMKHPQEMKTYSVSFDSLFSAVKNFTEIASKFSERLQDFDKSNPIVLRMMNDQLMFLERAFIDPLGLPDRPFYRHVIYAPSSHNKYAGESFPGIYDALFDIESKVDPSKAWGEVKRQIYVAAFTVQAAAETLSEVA
Compound,PSMA Blkg % (10 μM),Ki,PSMA Blkg % (1.0 μM)
"2-(4-(2-(((Benzyloxy)carbonyl)amino)-3-methoxy-3-oxopropyl)-1H-1,2,3-triazol-1-yl)pentanedioic Acid [P124]",10%,–,–
"O=C(O)CC[C@H](NC(=O)N[C@@H](CCCCNC(=O)N1CCN(C(=O)c2ccc(-n3cc(CCCF)nn3)cc2)CC1)C(=O)O)C(=O)O (stereo in doubt) [P249, (S)-2-(3-((S)-1-Carboxy-5-(4-(4-(4-(3-fluoropropyl)-1H-1,2,3-triazol-1-yl)benzoyl)-piperizine-1-carboxamido)pentyl)ureido)pentanedioic Acid]",–,9.4 nM,–
"O=C(O)CC[C@H](NC(=O)N[C@@H](CCCCNc1cc(OCC(COc2ccc([N+](=O)[O-])c(NCCCC[C@H](NC(=O)N[C@@H](CCC(=O)O)C(=O)O)C(=O)O)c2)n2cc(CCCF)nn2)ccc1[N+](=O)[O-])C(=O)O)C(=O)O (stereo in doubt) [P266, (2S)-2-(3-((1)-1-Carboxy-5-((5-(3-(3-(((S)-5-carboxy-5-(3-((S)-1,3-dicarboxypropyl)ureido)pentyl)amino)-4-nitrophenoxy)-2-(4-(3-fluoropropyl)-1H-1,2,3-triazol-1-yl)propoxy)-2-nitrophenyl)amino)pentyl)ureido)pentanedioic Acid]",–,0.3 nM,–
"O=C(O)CCC(NC(=O)N[C@@H](CCCCNc1nc(NCCN(CCNc2ccc([N+](=O)[O-])c(NCCCCC(NC(=O)N[C@@H](CCC(=O)O)C(=O)O)C(=O)O)n2)CCNc2ccc([N+](=O)[O-])c(NCCCCC(NC(=O)N[C@@H](CCC(=O)O)C(=O)O)C(=O)O)n2)ccc1[N+](=O)[O-])C(=O)O)C(=O)O (stereo in doubt) [P270, (2S,2′S,2″S)-2,2′,2″-(((((1S,1′S,1″S)-((6,6′,6″-((Nitrilotris(ethane-2,1-diyl))tris(azanediyl))tris(3-nitropyridine-6,2-diyl))tris(azanediyl))tris(1-carboxypentane-5,1-diyl))tris(azanediyl))tris(carbonyl))tris(azanediyl))tripentanedioic Acid]",–,0.2 nM,71%
"O=C(O)CC[C@H](NC(=O)NC(Cc1ccc(NC(=O)N2CCN(C(=O)c3cc(NC(=O)Cn4cc(CCCF)nn4)cc(C(=O)N4CCN(C(=O)Nc5ccc(CC(NC(=O)N[C@@H](CCC(=O)O)C(=O)O)C(=O)O)cc5)CC4)c3)CC2)cc1)C(=O)O)C(=O)O (stereo in doubt) [P274, (2S,2′S)-2,2′-(((((1S,1′S)-(((4,4′-(5-(2-(4-(3-Fluoropropyl)-1H-1,2,3-triazol-1-yl)acetamido)isophthaloyl)bis(piperazine-1,1′-carbonyl))bis(azanediyl))bis(4,1-phenylene))bis(1-carboxyethane-2,1-diyl))bis(azanediyl))bis(carbonyl))bis(azanediyl))dipentanedioic Acid]",–,13.1 nM,–
"O=C(O)CC[C@H](NC(=O)NC(Cc1ccc(NC(=O)N2CCN(C(=O)c3cc(C(=O)N4CCN(C(=O)Nc5ccc(CC(NC(=O)N[C@@H](CCC(=O)O)C(=O)O)C(=O)O)cc5)CC4)cc(-n4cc(CCCF)nn4)c3)CC2)cc1)C(=O)O)C(=O)O (stereo in doubt) [P275, (2S,2′S)-2,2′-(((((1S,1′S)-(((4,4′-(5-(4-(3-Fluoropropyl)-1H-1,2,3-triazol-1-yl)isophthaloyl)bis(piperazine-1,1′-carbonyl))bis(azanediyl))bis(4,1-phenylene))bis(1-carboxyethane-2,1-diyl))bis(azanediyl))bis(carbonyl))bis(azanediyl))dipentanedioic Acid]",–,6.6 nM,–
"O=C(O)CCC(NC(=O)N[C@@H](CCCCNc1cc(OCC(COc2ccc([N+](=O)[O-])c(NCCCCC(NC(=O)N[C@@H](CCC(=O)O)C(=O)O)C(=O)O)c2)OCc2cn(CCF)nn2)ccc1[N+](=O)[O-])C(=O)O)C(=O)O (stereo in doubt) [P277, (2S)-2-(3-((1S)-1-Carboxy-5-((5-(3-(3-(((S)-5-carboxy-5-(3-((S)-1,3-dicarboxypropyl)ureido)pentyl)amino)-4-nitrophenoxy)-2-((1-(2-fluoroethyl)-1H-1,2,3-triazol-4-yl)methoxy)propoxy)-2-nitrophenyl)amino)pentyl)ureido)pentanedioic Acid]",–,0.4 nM,–
"O=C(O)CCC(NC(=O)NC(CCCCNC(=O)CC(CC(=O)NCCCCC(NC(=O)N[C@@H](CCC(=O)O)C(=O)O)C(=O)O)NC(=O)c1ccc(-n2cc(CCCF)nn2)cc1)C(=O)O)C(=O)O (stereo in doubt) [P278, (3S,7S,23S,27S)-15-(4-(4-(3-Fluoropropyl)-1H-1,2,3-triazol-1-yl)benzamido)-5,13,17,25-tetraoxo-4,6,12,18,24,26-hexaazanonacosane-1,3,7,23,27,29-hexacarboxylic Acid]",–,0.2 nM,–
"O=C(O)CC[C@H](NC(=O)N[C@@H](CCCCNC(=O)N1CCN(C(=O)CCC(CCC(=O)N2CCN(C(=O)NCCCC[C@H](NC(=O)N[C@@H](CCC(=O)O)C(=O)O)C(=O)O)CC2)NC(=O)c2ccc(-n3cc(CCCF)nn3)cc2)CC1)C(=O)O)C(=O)O (stereo in doubt) [P281, (2S,2′S)-2,2′-(((((1S,1′S)-((4,4′-(4-(4-(4-(3-Fluoropropyl)-1H-1,2,3-triazol-1-yl)benzamido)heptanedioyl)bis(piperazine-1,1′-carbonyl))bis(azanediyl))bis(1-carboxypentane-5,1diyl))-bis(azanediyl))-bis(carbonyl))-bis(azanediyl))-dipentanedioic Acid]",–,1.3 nM,–
"O=C(O)CCC(NC(=O)NC(CC1CCN(C(=O)CCC(CCC(=O)N2CCC(C[C@H](NC(=O)NC(CCC(=O)O)C(=O)O)C(=O)O)CC2)NC(=O)c2ccc(-n3cc(CCCF)nn3)cc2)CC1)C(=O)O)C(=O)O (stereo in doubt) [P292, (2S)-2-(3-((1S)-1-Carboxy-2-(1-(7-(4-((S)-2-carboxy-2-(3-((S)-1,3-dicarboxypropyl)-ureido)-ethyl)-piperidin-1-yl)-4-(4-(4-(3-fluoropropyl)-1H-1,2,3-triazol-1-yl)-benzamido)7-oxoheptanoyl)-piperidin-4-yl)ethyl)ureido)pentanedioic Acid]",–,0.7 nM,96%
O=C(O)CC[C@H](NC(=O)N[C@@H](CSCc1ccc(F)cc1)C(=O)O)C(=O)O [P001],97%,50 nM,–
"O=C(O)CC[C@H](NC(=O)N[C@@H](CCCCNC(=O)c1ccc(F)nc1)C(=O)O)C(=O)O [P002, (S)-2-(3-((S)-1-Carboxy-5-(6-fluoronicotinamido)pentyl)ureido)pentanedioic Acid]",92%,–,–
"O=C(O)CC[C@H](NC(=O)N[C@@H](CCCCNC(=O)c1ccc(Cl)nc1)C(=O)O)C(=O)O [P003, (S)-2-(3-((S)-1-Carboxy-5-(6-chloronicotinamido)pentyl)ureido)pentanedioic Acid]",99%,–,–
"O=C(O)CC[C@H](NC(=O)N[C@@H](CCCCNC(=O)c1ccnc(F)c1)C(=O)O)C(=O)O [P004, (S)-2-(3-((S)-1-Carboxy-5-(2-fluoroisonicotinamido)pentyl)ureido)pentanedioic Acid]",90%,15.6 nM,–
"O=C(O)CC[C@H](NC(=O)N[C@@H](CCCCNC(=O)Cn1cc(CCCF)nn1)C(=O)O)C(=O)O [P005, (S)-2-(3-((S)-1-Carboxy-5-(2-(4-(3-fluoropropyl)-1H-1,2,3-triazol-1-yl)acetamido)pentyl)ureido)pentanedioic Acid]",89%,40.7 nM,–
"O=C(Nc1cc(C(=O)O)cc(C(=O)O)c1)N[C@@H](Cc1ccc(OCCF)cc1)C(=O)O [P006, (S)-5-(3-(1-Carboxy-2-(4-(2-fluoroethoxy)phenyl)ethyl)ureido)isophthalic Acid]",0%,–,–
"O=C(Cn1cc(CCCF)nn1)NCCCC[C@H](NC(=O)Nc1cc(C(=O)O)cc(C(=O)O)c1)C(=O)O [P007, (S)-5-(3-(1-Carboxy-5-(2-(4-(3-fluoropropyl)-1H-1,2,3-triazol-1-yl)acetamido)pentyl)-ureido)isophthalic Acid]",0%,–,–
"O=C(O)CC[C@H](NC(=O)N(CC(=O)O)[C@@H](CCCCNC(=O)OCc1ccccc1)C(=O)O)C(=O)O [P008, (9S,13S)-10-(Carboxymethyl)-3,1-dioxo-1-phenyl-2-oxa-4,10,12-triazapentadecane-9,13,15-tricarboxylic Acid]",21%,–,–
O=C(O)CCC(CP(=O)(O)O)C(=O)O (centres unmarked) [P009],100%,–,–
"O=C(O)CC[C@H](NC(=O)N(CCc1ccccc1)CC(=O)O)C(=O)O [P010, (S)-2-(3-(Carboxymethyl)-3-phenethylureido)pentanedioic Acid]",0%,–,–
"O=C(O)CC[C@H](NC(=O)N(CC(=O)O)NC(=O)Cc1ccccc1)C(=O)O [P011, (S)-2-(1-(Carboxymethyl)-2-(2-phenylacetyl)hydrazinecarboxamido)pentanedioic Acid]",0%,–,–
"O=C(O)CC[C@H](NC(=O)N(CC(=O)O)[C@@H](CCCCNC(=O)OCc1ccccc1)C(=O)NO)C(=O)O [P012, (S)-2-(3-((S)-6-(((Benzyloxy)carbonyl)amino)-1-(hydroxyamino)-1-oxohexan-2-yl)-3-(carboxymethyl)ureido)pentanedioic Acid]",0%,–,–
"O=C(O)CN(CC(=O)O)NC(=O)NC(CSCc1ccccc1)C(=O)O (centres unmarked) [P013, 2,2′-(2-((2-(Benzylthio)-1-carboxyethyl)carbamoyl)hydrazine-1,1-diyl)diacetic Acid]",16%,–,–
"O=C(O)CC[C@H](NC(=O)C[C@H](NC(=O)OCc1ccccc1)C(=O)O)C(=O)O [P015, (S)-2-((S)-3-(((Benzyloxy)carbonyl)amino)-3-carboxypropanamido)pentanedioic Acid]",0%,–,–
